Measurements as given in patent US9228224B2, “Method for assaying OGFOD1 activity” (ISIS INNOVATION LIMITED, priority 2011, dated 2016).

Tests used:
[1] = biological target: T1, OGFOD1 (hsOGFOD1_FL) (Homo sapiens, UniProt Q8N543); assay: Thermal stability shift assay (SYPRO Orange); type: binding; details: change in apparent protein melting temperature; compound 20 μM, 1 μM hsOGFOD1_FL, 50 μM MnCl2
T1 construct: His6 tag (N-terminal pET-28a leader); made in house; host or cells: E. coli BL21(DE3)
T1 sequence (Q8N543 1-542): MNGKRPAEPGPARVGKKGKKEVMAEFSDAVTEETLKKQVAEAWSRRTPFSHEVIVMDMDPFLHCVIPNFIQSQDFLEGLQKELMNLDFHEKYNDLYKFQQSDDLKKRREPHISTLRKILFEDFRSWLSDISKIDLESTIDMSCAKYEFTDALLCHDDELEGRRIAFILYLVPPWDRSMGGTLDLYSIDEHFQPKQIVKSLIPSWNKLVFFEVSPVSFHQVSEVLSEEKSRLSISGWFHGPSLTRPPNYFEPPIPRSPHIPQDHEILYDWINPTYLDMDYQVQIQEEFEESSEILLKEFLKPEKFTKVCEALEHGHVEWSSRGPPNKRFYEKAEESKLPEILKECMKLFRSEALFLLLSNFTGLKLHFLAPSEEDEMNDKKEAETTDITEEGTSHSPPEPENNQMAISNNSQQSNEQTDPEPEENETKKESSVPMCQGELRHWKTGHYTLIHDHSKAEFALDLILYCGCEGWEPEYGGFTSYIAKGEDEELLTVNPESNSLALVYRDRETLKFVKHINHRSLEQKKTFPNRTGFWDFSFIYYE
Protocol: Assays were conducted in 50 mM HEPES buffer, 150 mM NaCl, pH 7.5. A stock solution of MnCl2 (500 mM) in 20 mM HCl was prepared, and diluted to 5 mM with water. A master mix containing 2.085 mL buffer, 21 μL MnCl2 (5 mM, 50 μM final), 21 μL hsOGFOD1_FL (100 μM, 1 μM final), and 2.1 μL SYPRO Orange dye was prepared. The screen was conducted using stock solutions of compounds (400 μIM in DMSO) at a final concentration of 20 μM, by mixing 1 μL compound stock solution with 19 μL assay master mix. Incubations were performed in a white 96-well RT-PCR plate and subjected to thermal cycling as per an established protocol. Data was analysed in Microsoft Excel and GraphPad Prism.
The effect of small molecules on the stability of proteins to thermal denaturation was assessed by the change in apparent protein melting temperature, defined as the temperature at which equal amounts of folded and unfolded protein exist in solution. Unfolding was quantified by measurement of the fluorescence increase of SYPRO® Orange dye (Invitrogen) upon binding to hydrophobic residues that are exposed during unfolding. Approximately 400 small-molecule compounds were tested at a final concentration of 20 μM. Stabilization data for selected compounds are shown in below. Structures of the compounds are set out below.

[2] = biological target: T2, OGFOD1 (Homo sapiens, UniProt Q8N543); assay: MALDI-based hydroxylation assay, inhibitor screen; type: biochemical; details: general statement in the description, no conditions given
T2 construct: His6 tag (N-terminal pET-28a leader); made in house; host or cells: E. coli BL21(DE3)
T2 sequence (Q8N543 1-542): T1 sequence (Q8N543 1-542)
Protocol: A library of 150 compounds comprising known and potential inhibitors of 2OG oxygenases was screened against OGFOD1 by a MALDI-based hydroxylation assay. Single-point measurements were conducted in duplicate, using 4 μM OGFOD1 at 100 μM final compound concentration in the presence of excess (300 μM) 2OG, with incubation at 37° C. for 30 min.

[3] = biological target: T2, OGFOD1; assay: OGFOD1-mediated hydroxylation of RPS23 20mer peptide with generic 2OG oxygenase inhibitors; type: biochemical; details: 1 mM inhibitor
Protocol: OGFOD1-mediated hydroxylation of the initially identified 20mer peptide sequence of human RPS23 was strictly dependent on presence of 2OG and Fe(II), and hydroxylation was reduced in presence of 1 mM of generic 2OG oxygenase inhibitors such as N-oxalyl glycine (NOG), pyridine 2,4-dicarboxylic acid (2,4-PDCA) and transition metal ions such as Co^II.

[4] = biological target: T3, full-length OGFOD1 (Homo sapiens, UniProt Q8N543); assay: 2OG turnover assay; type: biochemical; details: 1 mM inhibitor, 37° C., 20 min
T3 construct: His6 tag (N-terminal pET-28a leader); made in house; host or cells: E. coli BL21(DE3)
T3 sequence (Q8N543 1-542): T1 sequence (Q8N543 1-542)
Protocol: Values shown are averages of two or three experiments. Error bars represent standard deviations. The assay was carried out for 20 min at 37° C. using 8 μM recombinant full-length human OGFOD1 (SEQ ID NO:1), 288 μM 2OG, 3.7 μM 1-[^14C]-2OG (specific activity […], stock concentration 1.83 mM), RPS23 peptide, 100 μM (NH4)2Fe(SO4)2, 4 mM ascorbate, 0.66 mg/ml catalase, 1 mM DTT, 50 mM Tris.HCl pH 7.5, and with one of OGFOD1, (NH4)2Fe(SO4)2 and ascorbate missing from the assay. The assay was also performed in the presence of 1 mM pyridine 2,4-dicarboxylic acid (2,4-PDCA).
Constructs of OGFOD1 encoding full-length protein or its C-terminal domain were tested for enzymatic activity using a 2OG turnover assay (Kivirikko and Myllyla (1982) Methods in Enzymology 82: […]). […]
These were diluted to a total volume of 100 μl with 50 mM Tris-Cl buffer, pH 7.5. […] The Eppendorf tubes containing the hyamine hydroxide were transferred to scintillation vials, mixed with 5 mL OptiPhase Liquid Scintillation Cocktail (Fisher Scientific) and total ^14C counts quantified using a Beckman LS6500 Multi-Purpose Scintillation Counter. Conversion of 2OG was calculated from the percentage of 1-[^14C]-2OG that had been converted into gaseous ^14CO2. […]

[5] = biological target: T2, OGFOD1; assay: MALDI assay of OGFOD1 specificity towards RPS23 and RPS23-like peptides; type: biochemical; details: peptide as substrate; 4 μM OGFOD1/100 μM peptide, 37° C., 30 min; symbols not defined
Protocol: To investigate the specificity of OGFOD1 towards variations in the sequence and length, multiple corresponding to RPS23 and RPS23-like sequences were synthesized and tested. MALDI assays were performed using a 1:25 protein:peptide (4 μM/100 μM) ratio, with incubation at 37° C. for 30 min.
Mutation of prolyl to alanine or isoleucine residues completely abolished hydroxylation, providing further evidence for OGFOD1 acting as a prolyl hydroxylase. […] This observation is consistent with the high evolutionary conservation of the amino acids following, but not of those preceding the prolyl (Pro-62) residue in RPS23.

| Molecule | Stabilization (° C.) [1] | also measured |
| --- | --- | --- |
| O=C(O)CCC(=O)Nc1cc2ccccc2cn1 [Compound 1] | +8.4 °C |  |
| O=C(O)CCC(=O)NNC(=O)c1ccc2ccccc2c1 [Compound 2] | +7.1 °C |  |
| O=C(O)CCC(=O)NNS(=O)(=O)c1ccccc1 [Compound 3] | +7.1 °C |  |
| O=C(O)CNC(=O)c1nc(Cl)c2ccccc2c1O [Compound 4, 2-(1-Chloro-4-hydroxyisoquinoline-3-carboxamido)acetic acid] | +7.0 °C | inhibition of OGFOD1 prolyl hydroxylase activity [2]: inhibit OGFOD1; inhibition of OGFOD1 prolyl hydroxylase activity ([2]; listed as FG2216): inhibitory |
| O=C(O)c1ccnc(-c2cc(C(=O)O)ccn2)c1 [Compound 5] | +7.5 °C |  |
| O=C(O)CCC(=O)Nc1ccc(Br)cn1 [Compound 6] | +7.0 °C |  |
| N#Cc1ccc2c(=O)c(C(=O)O)c[nH]c2c1 [Compound 7] | +7.5 °C |  |
| CCC(=O)C1C(=O)CC(C(=O)O)CC1=O (centres unmarked) [Compound 8, Prohexadione] | +6.9 °C |  |
| CC(NC(=O)C(=O)O)C(=O)O (centres unmarked) [Compound 9] | +6.3 °C |  |
| O=C(O)CCNC(=O)c1nc2ccccc2cc1O [Compound 10] | +7.2 °C |  |
| O=C(O)c1ccnc(C(=O)O)c1 [Compound 11, Pyridine 2,4-dicarboxylic acid] | +6.7 °C | inhibition of OGFOD1 prolyl hydroxylase activity [2]: inhibitory; hydroxylation of RPS23 20mer peptide [3]: reduced; OGFOD1-catalyzed 2OG turnover [4]: inhibited |
| O=C(O)CNC(=O)C(=O)O [N-oxalylglycine] |  | inhibition of OGFOD1 prolyl hydroxylase activity [2]: inhibitory; hydroxylation of RPS23 20mer peptide [3]: reduced |
| O=C(O)c1cc(O)c(O)c(O)c1 [gallic acid] |  | inhibition of OGFOD1 prolyl hydroxylase activity [2]: inhibitory |
| CODD: PHD2 C-terminal oxygen-dependent degradation domain (CODD) substrate of HIF-1α |  | Hydroxylation [5]: No hydroxylation |
